pIC50: −log10 of the molar value.

Experiment [1] addresses T1, PDE5A1 (Homo sapiens, UniProt O76074).
T1 construct: made in house; host or cells: SF21 insect cells (baculovirus; virus made in SF9)
Description: Inhibition of PDE5A1 activity, modified SPA (scintillation proximity assay) with recombinant enzyme. The format is biochemical. Conditions: for pIC50: recombinant PDE5A1, 0.5 μM cGMP substrate, read-out: Inhibition of the PDE5 activity (IC50). An excerpt:
The PDE5A1 (GB no. AF043731) was cloned via PCR from Kidney cDNA. A 5′ fragment was amplified with OZ489 (5′-[…] -3′) and OZ 493 (5′-[…]-3′), a 3′ fragment was amplified with OZ 492 (5′-[…]-3′) and OZ 490 (5′-[…]-3′). Both fragments were cloned into pCR2.1-Topo. Primers OZ 493 and OZ 492 have a nucleotide substitution that doesn't affect the translated sequence, but introduces an EcoRI cutting site. The 2 fragments were cut out of the cloning vector with EcoRI and subcloned together in a single ligation reaction into pBP9, resulting in the construct PZ 287. […] For correct expression it was subcloned with Xmal/Sacl into pBacPak8.
The recombinant baculovirus was prepared by means of homologous recombination in SF9 insect cells. The expression plasmid was cotransfected with Bac-N-Blue (Invitrogen, Groningen, NL) or Baculo-Gold DNA (Pharmingen, Hamburg) using a standard protocol (Pharmingen, Hamburg). Wt virus-free recombinant virus supernatant was selected using plaque assay methods. After that, high-titre virus supernatant was prepared by amplifying 3 times. PDE was expressed in SF21 cells by infecting 2×10^6 cells/ml with an MOI (multiplicity of infection) between 1 and 10 in serum-free SF900 medium (Life Technologies, Paisley, UK). The cells were cultured at 28° C. for 48-72 hours, after which they were pelleted for 5-10 min at 1000 g and 4° C.
The SF21 insect cells were resuspended, at a concentration of approx. 10^7 cells/ml, in ice-cold (4° C.) homogenization buffer (20 mM Tris, pH 8.2, containing the following additions: 140 mM NaCl, 3.8 mM KCl, 1 mM EGTA, 1 mM MgCl2, 10 mM β-mercaptoethanol, 2 mM benzamidine, 0.4 mM Pefablock, 10 μM leupeptin, 10 μM pepstatin A, 5 μM trypsin inhibitor) and disrupted by ultrasonication. The homogenate was then centrifuged for 10 min at 1000× g and the supernatant was stored at −80° C. until subsequent use (see below). The protein content was determined by the Bradford method (BioRad, Munich) using BSA as the standard.
The test volume is 100 μl and contains 20 mM Tris buffer (pH 7.4), 0.1 mg of BSA (bovine serum albumin)/ml, 5 mM Mg^2+, 0.5 μM cGMP (including about 50,000 cpm of [3H]cGMP as a tracer), 1 μl of the respective substance dilution in DMSO and sufficient recombinant PDE (1000× g supernatant, see above) to ensure that 10-20% of the cGMP is converted under the said experimental conditions. […] After a preincubation of 5 min at 37° C., the reaction is started by adding the substrate (cGMP) and the assay is incubated for a further 15 min; after that, it is stopped by adding SPA beads (50 μl). In accordance with the manufacturer's instructions, the SPA beads had previously been resuspended in water, but were then diluted 1:3 (v/v) in water; the diluted solution also contains 3 mM IBMX to ensure a complete PDE activity stop. After the beads have been sedimented (>30 min), the MTP's are analyzed in commercially available luminescence detection devices. The corresponding IC50 values of the compounds for the inhibition of PDE activity are determined from the concentration-effect curves by means of non-linear regression.
(SPA uses beads or plates that emit light when radiolabelled molecules are held near them.)

For experiment [2], the system named is isolated guinea pig Langendorff hearts. Description: Perfused guinea-pig Langendorff heart (bolus injection into the perfusion flow). The source says: (Modification: Bolus Injection into the Perfusion Flow)
Guinea-pigs (male, Dunkin Hartley, 400-500 g; Charles River, Sulzfeld, Germany) kept in Macrolon® cages (type IV) with free access to food (maintenance diet no. 3418, Provimi-Kliba, CH-4303 Kaiseraugst) and tap water, were killed by cervical dislocation and the thoracic cavity was opened. The heart was rapidly excised and perfused with Krebs-Henseleit solution at a constant pressure of 80 cm H2O ([…]) via retrograde cannulation of the aorta in a Langendorff apparatus. The Krebs-Henseleit solution was composed as follows (mM: NaCl 118, KCl 4.7, CaCl2 1.9, MgSO4 1.2, KH2PO4 1.2, NaHCO3 25.0, and glucose 5.0, at 37° C., gassed with 95% O2/5% CO2, v/v). Through an incision in the left atrium, a water-filled balloon catheter connected to a Statham P 23 Db pressure transducer was introduced into the left ventricle and preloaded to a pressure of […], mimicking the diastolic pressure.
Precoronary perfusate flow (CF, at an initial average passive flow of 11-13 ml/min) was measured using an electromagnetic flow meter. The change in left ventricular isovolumetric pressure amplitude (LVP) calculated by subtracting the diastolic from the systolic pressure, the rate of maximal left ventricular pressure rise (dP/dtmax), and the rate of the spontaneously beating heart (HR) were continuously recorded and monitored by a data acquisition system (Notocord, hem version 3.3; F-78290 Croissy).
Following at least 1 h of perfusion and stabilization of all cardiac parameters, the test drug is injected as 100 μl bolus within 2 s directly into the perfusion tube connected to the aortic inflow and increased threefold after the previous dose has produced its coronary dilatory response and the perfusion flow has returned to pre-drug values again. Thee drug-induced change in cardiac parameters is expressed as percentage of the initial pre-drug values.

Turning to `Cc1ccc(-c2ncc(Cl)cc2-c2ccc(S(C)(=O)=O)cc2)cn1` [Etorecoxib], in experiment [1], the “PDE5 inhibition in vitro (result in words)” value (“PDE5 inhibition in vitro” below) is given as “show no effects” and the pIC50 (usually the negative decadic logarithm of the IC50, by convention in mol/L) is less than 4.00. In addition, the coronary heart flow result in experiment [2] is given as “substantially lack the ability to increase coronary heart flow”.

Turning to `CS(=O)(=O)Nc1cc2c(cc1Sc1ccc(F)cc1F)C(=O)CC2` [L-745337], the “PDE5 inhibition in vitro” value in experiment [1] is reported as “possess PDE5 activity in the μM range”.

As for `CCC(=O)NS(=O)(=O)c1ccc(-c2c(-c3ccccc3)noc2C)cc1` [Parecoxib], in experiment [1], the “PDE5 inhibition in vitro” value was “show no effects” and the pIC50 is less than 4.00. The coronary heart flow result in experiment [2] is “substantially lack the ability to increase coronary heart flow”.

Turning to `CS(=O)(=O)c1ccc(C2=C(c3ccccc3)C(=O)OC2)cc1` [Rofecoxib], in experiment [1], the “PDE5 inhibition in vitro” value is listed as “show no effects” and the pIC50 was less than 4.00. The coronary heart flow entry in experiment [2] is reported as “substantially lack the ability to increase coronary heart flow”.

For `Cc1ccc(-c2cc(C(F)(F)F)nn2-c2ccc(S(N)(=O)=O)cc2)cc1` [Celecoxib], in experiment [2], the heart rate result is “no effect” and the left ventricular pressure entry is “no effect”.

Consider `CC(=O)Oc1ccccc1C(=O)O` [Aspirin, acetylsalicylic acid], for which, in experiment [1], the “PDE5 inhibition in vitro” value is given as “show no effects” and the pIC50 was less than 4.00.

For the compound `Cc1onc(-c2ccccc2)c1-c1ccc(S(N)(=O)=O)cc1` [Valdecoxib], in experiment [1], the “PDE5 inhibition in vitro” value is “show no effects” and the negative-log IC50 (pIC50) is less than 4.00. The coronary heart flow result in experiment [2] was “substantially lack the ability to increase coronary heart flow”.

On to `CS(=O)(=O)Nc1ccc([N+](=O)[O-])cc1Oc1ccccc1` [nimesulide], for which the “PDE5 inhibition in vitro” value in experiment [1] was “possess PDE5 activity in the μM range”.

Take `Cc1ccc(Nc2c(F)cccc2Cl)c(CC(=O)O)c1` [Lumiracoxib]: in experiment [1], the “PDE5 inhibition in vitro” value was “show no effects” and the pIC50 is less than 4.00. Further, the coronary heart flow entry in experiment [2] was “substantially lack the ability to increase coronary heart flow”.

With `CS(=O)(=O)Nc1cc2c(cc1Oc1ccc(F)cc1F)C(=O)CC2` [flosulide], in experiment [1], the “PDE5 inhibition in vitro” value was “possess PDE5 activity in the μM range”.

Consider `O=C(O)Cc1ccccc1Nc1c(Cl)cccc1Cl` [Diclofenac], for which, in experiment [1], the “PDE5 inhibition in vitro” value is reported as “show no effects” and the pIC50 is less than 4.00. Also, in experiment [2], the coronary heart flow entry was “substantially lack the ability to increase coronary heart flow”.
